Reference: patent US9545412B2, “Composition and methods used during anti-HIV treatment” (UNIVERSITE D'AIX-MARSEILLE, priority 2008, dated 2017)

Experiments:
progerin = experiment: Mass spectrometry (MALDI-ToF) of nuclear envelope proteins, cells of progeria patients; format: cell-based, human; conditions: FTI 2.5 μM
Excerpt: (§1) The fibroblasts of control and Zmpste24^−/− mice as well as the cells lymphoblastoids of progeria patients have been homogenised, the nuclei isolated via ultracentrifugation and the nuclear proteins obtained as described in Blobel and Potter, V. R. Nuclei from rat liver: isolation method that combines purity with high yield, Science 154, 1662-1665, 1966. The proteins of the nuclear lamina were separated via SDS-PAGE electrophoresis, and the strips containing the lamin A, the prelamin A and the progerin were excised. The fragments of the gel were washed twice with […] of a ammonium bicarbonate/acetonitrile mixture (70/30, 25 mM), dried (15 min, 90° C.) and digested (1 h, 60° C.) with trypsin (12 ng/ml, Promega) in the ammonium bicarbonate 25 mM. […] The data collected using 200 laser firings produce spectra analysed with the Data Explorer programme (version 4.0.0.0, Applied Biosystems).
FIG. 11 legend: mass spectrometry analysis of the proteins extracted from the nuclear envelop of the untreated cells (a), of the cells of the progeria patients treated with FTI (2.5 μM, b) or treated with the mixture of pravastatin+zoledronate (1 μM apiece, c). […] Each peak corresponds to the tryptic peptide of the progerin and is marked with the measured monoisotopic mass in experiment and with the theoretical mass (between parentheses). […]

prelamin A [1] = experiment: Mass spectrometry (MALDI-ToF) of nuclear envelope proteins, Zmpste24^−/− mouse fibroblasts; format: cell-based; conditions: FTI-treated Zmpste24^−/− mouse cells
Excerpt: as §1
FIG. 12 legend: a mass spectrometry analysis of the proteins extracted from the nuclear envelop of the untreated fibroblasts (a) or treated with a mixture of pravastatin+zoledronate (1 μM apiece, b) stemming from Zmpste24^−/− mice. […] Each peak corresponds to a tryptic peptide of the progerin and is marked with a monoisotopic mass measured the experiment and with the theoritical mass (in parentheses). […]

[2] = tested on: cells of progeria patients; experiment: Quantitative analysis of nuclear morphology of cells of progeria patients; format: cell-based, human; conditions: added to pravastatin+zoledronate, abnormal nuclei measured 48 h after beginning of treatment
Excerpt: The dermal fibroblasts of a control subject (GM00038) and of patients afflicted with progeria and carriers of the mutation G608G (AG11498 and AG01972) were obtained from the Coriell Cell Repository. The HeLa cells come from the American Type Culture Collection. The cells are cultivated in DMEM (Gibco) supplemented with 10% FBS (Gibco) and 1% antibiotic-antimycotic (Gibco). The fibroblasts come from tails of 12-day-old mice (Varela and al., 2005). The concentration and the duration of treatment with the statin and the aminobiphosphonate are indicated in the legende of the figures. […] The percentage of abnormal nuclei is measured 48 h after the beginning of the treatment. […]
The dilution of the primary antibodies is 1/100 for the goat polyclonal anti-prelamin A antibody (Sc-6214, Santa Cruz Biotechnologies), 1/40 for the anti-lamin A/C antibody (4A7 provided by G. Morris), 1/200 for the Rabbit anti-calreticulin antibody (Stressgen) and 1/100 for the B1 anti-lamin antibody (Abcam). […] Digital images are recorded with a Leica DMR microscope equipped with a CoolSnap camera or with a Leica TCS SP5 confocal microscope. […] More than 100 nuclei were analysed in the control fibroblasts for each of the treatments. The number of nuclei of cells of patients afflicted with progeria analysed is 250 (passage 8), 198 (passage 13) and 150 (passage 20). […]

Zmpste24^−/− mouse cells = experiment: Nuclear morphology of Zmpste24^−/− mouse cells in culture; format: cell-based; conditions: pravastatin (1 μM) and zoledronate (1 μM), alone or in combination
Excerpt: (§2) The dermal fibroblasts of a control subject (GM00038) and of patients afflicted with progeria and carriers of the mutation G608G (AG11498 and AG01972) were obtained from the Coriell Cell Repository. The HeLa cells come from the American Type Culture Collection. The cells are cultivated in DMEM (Gibco) supplemented with 10% FBS (Gibco) and 1% antibiotic-antimycotic (Gibco). The fibroblasts come from tails of 12-day-old mice (Varela and al., 2005). The concentration and the duration of treatment with the statin and the aminobiphosphonate are indicated in the legende of the figures. During the combined statin+aminobiphosphonate treatment in the presence of farnesol and/or of geranylgeraniol, […] were added to the culture medium with increasing concentrations of farnesol and/or of geranylgeraniol. The percentage of abnormal nuclei is measured 48 h after the beginning of the treatment.
(§3) Quantification of the effect of pravastatin (1 μM) and zoledronate (1 μM), alone or in combination, on the nuclear morphology of Zmpste24^−/− mouse cells (a) and control mouse cells (b) in culture, in the presence of farnesol, geranylgeraniol or both molecules.

control fibroblasts = experiment: Nuclear morphology of control mouse cells in culture; format: cell-based
Excerpt: as §2, §3

prelamin A [3] = experiment: Immunohistochemistry: prelamin A level in healthy cells; format: cell-based, human; conditions: Pravastatin 100 μM for 12 hours, Zoledronate 20 μM for 6 hours; in association or alone
Procedure: (§4) A cell culture is trypsinized, and the cells are counted on a Neubauer cytometer.
(§5) Labtech culture wells (Nunc, ref. 177399) are seeded in an amount of 5×10^4 cells per well.
(§6) The complete culture medium is supplemented by the treatment(s) (statin, NBP, both), and the cells are cultivated for the ad hoc time.
(§7) The cells are fixed in a paraformaldehyde 4% solution (in PBS) for 10 minutes at room temperature.
(§8) […], the cells are incubated for 5 minutes at room temperature in a humidity chamber in 50 μl of permeabilization solution:
(§9) The primary antibody is diluted to 1/100 in 50 μl of incubation solution and placed in contact with the cells for 1 hour at room temperature in a humidity chamber.
(§10) The primary antibodies used are of two types: • Mouse anti-lamin A/C (N-terminal side), clone 4A7, donated by G. Morris (Oswestry, UK) • Goat anti-prelamin A (C-terminal end 15 aa), product SC6214, Santa Cruz Biotchnology, Inc.
(§11) The incubation with the secondary antibody takes place for 1 hour in […] of incubation solution at room temperature in a humidity chamber. […]
(§12) The cells are immersed in one drop of VectaShield (Vector), covered with an object-cover slide and observed under a fluorescence microscope (Leica DMR, Leica Microsystems), equipped with a coolSNAP camera (Princeton). […]

healthy cells = experiment: Immunohistochemistry: toxicity / deformed nuclei on healthy cells; format: cell-based, human; conditions: Pravastatin 100 μM for 12 hours, Zoledronate 20 μM for 6 hours; in association or alone
Procedure: as §4, §5, §6, §7, §8, §9, §10, §11, §12

Zmpste24^−/− mice = experiment: Progeroid phenotype and lifespan of Zmpste24^−/− mice (Example 7); format: in vivo, mouse; conditions: daily treatment with one drug alone
Procedure: All of the experiments on mice are governed by the rules set down by the Animal Experiment Committee of the University of Oviedo (Spain). The pravastatin (100 mg/kg/day) and the zoledronate (100 mg/kg/day) diluted in PBS are administered to the mice every day.

| Structure (SMILES) | effect on the nuclear morphology improvement given by the pravastatin+zoledronate treatment [2] | effect on the nuclear morphology improvement given by the pravastatin+zoledronate treatment (Zmpste24^−/− mouse cells) | effect on nuclear morphology of control fibroblasts (control fibroblasts) | prelamin A level produced in healthy cells (prelamin A [3]) [%] | also measured |
| --- | --- | --- | --- | --- | --- |
| COC(=O)[C@H](CCSC)NC(=O)c1ccc(NC[C@@H](N)CS)cc1-c1ccccc1 [FTI-277] |  |  |  |  | farnesylated and carboxymethylated progerin peak (progerin): considerable reduced; geranylgeranylated progerin peptides (progerin): appears geranylgeranylated and phosphoryl; geranyl-geranylated prelamin A peptide (prelamin A [1]): detected a peptide which mass is compatible with a geranyl-geranylated fragment of the prelamine A; quantity of farnesylated prelamin A (prelamin A [1]): reduction in the quantity of farnesyled prelamine A |
| CC(C)=CCCC(C)=CCCC(C)=CCO [farnesol] | nullifies the effect of the pravastatin+zoledronate treatment | nullify the effect of the pravastatin+zoledronate treatment | Neither farnesol nor geranylgeraniol have any effect |  |  |
| CC(C)=CCC/C(C)=C/CC/C(C)=C/CC/C(C)=C/CO [geranylgeraniol] | blocks the effect of the treatment | nullify the effect of the pravastatin+zoledronate treatment | Neither farnesol nor geranylgeraniol have any effect |  |  |
| CC[C@H](C)C(=O)O[C@H]1C[C@H](O)C=C2C=C[C@H](C)[C@H](CC[C@@H](O)C[C@@H](O)CC(=O)O)[C@H]21 [pravastatin] |  |  |  | 25 | rate of deformed nuclei (sign of toxicity on healthy cells) (healthy cells): around 12% |
| O=P(O)(O)C(O)(Cn1ccnc1)P(=O)(O)O [zoledronate, (1-hydroxy-2-imidazol-1-yl-1-phosphono-ethyl) phosphonic acid] |  |  |  | 15 | lifespan of Zmpste24^−/− mice, drug in isolation (Zmpste24^−/− mice): neither of the drugs in isolation, pravastatin or zoledronate, increases the lifespan |
